Measured values published in PubChem BioAssay AID2060610 (Molecular Pharmacology Branch, DTP, NCI, 2025).
“And” between values parts separate entries of the source, which are not always exact repeats. Equal entries are not always repeated. Each block holds one molecule with its values, some of them ahead of it.

Test system: 616215-338-R-J1-PDC complex spheroids, viability % test/control
Test: Anticancer human tumor 616215-338-R-J1-PDC patient-derived colon adenocarcinoma cell line growth inhibition [CLK]
Conditions: for viability, T/C: stronger effect = lower value
In short: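 Multi-cell-type spheroids combined patient-derived tumor cells with HUVEC endothelial cells and human mesenchymal stem cells. Paired agents were dosed in half-log steps down from about clinical Cmax, or from 10 microM where Cmax was unknown.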

[1] = curve of first compound, second compound 0.0316 µM
[2] = curve of first compound, second compound 0.1 µM
[3] = curve of first compound, second compound 0.316 µM
[4] = curve of first compound, second compound 1 µM
[5] = curve of first compound, second compound 3.16 µM
[6] = curve of first compound, second compound 10 µM
[7] = second compound 0.0316 µM, first compound 0.0316 µM
[8] = second compound 0.0316 µM, first compound 0.1 µM
[9] = second compound 0.0316 µM, first compound 0.316 µM
[10] = second compound 0.0316 µM, first compound 1 µM
[11] = second compound 0.0316 µM, first compound 3.16 µM
[12] = second compound 0.0316 µM, first compound 10 µM
[13] = second compound 0.1 µM, first compound 0.0316 µM
[14] = second compound 0.1 µM, first compound 0.1 µM
[15] = second compound 0.1 µM, first compound 0.316 µM
[16] = second compound 0.1 µM, first compound 1 µM
[17] = second compound 0.1 µM, first compound 3.16 µM
[18] = second compound 0.1 µM, first compound 10 µM
[19] = second compound 0.316 µM, first compound 0.0316 µM
[20] = second compound 0.316 µM, first compound 0.1 µM
[21] = second compound 0.316 µM, first compound 0.316 µM
[22] = second compound 0.316 µM, first compound 1 µM
[23] = second compound 0.316 µM, first compound 3.16 µM
[24] = second compound 0.316 µM, first compound 10 µM
[25] = second compound 1 µM, first compound 0.0316 µM
[26] = second compound 1 µM, first compound 0.1 µM
[27] = second compound 1 µM, first compound 0.316 µM
[28] = second compound 1 µM, first compound 1 µM
[29] = second compound 1 µM, first compound 3.16 µM
[30] = second compound 1 µM, first compound 10 µM
[31] = second compound 3.16 µM, first compound 0.0316 µM
[32] = second compound 3.16 µM, first compound 0.1 µM
[33] = second compound 3.16 µM, first compound 0.316 µM
[34] = second compound 3.16 µM, first compound 1 µM
[35] = second compound 3.16 µM, first compound 3.16 µM
[36] = second compound 3.16 µM, first compound 10 µM
[37] = second compound 10 µM, first compound 0.0316 µM
[38] = second compound 10 µM, first compound 0.1 µM
[39] = second compound 10 µM, first compound 0.316 µM
[40] = second compound 10 µM, first compound 1 µM
[41] = second compound 10 µM, first compound 3.16 µM
[42] = second compound 10 µM, first compound 10 µM
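Further: spheroids exposed to agents for 7 days.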
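Wherever viability, T/C is given: 100% = DMSO vehicle wells.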

Structure (SMILES): CC(=O)O[C@H]1C(=O)[C@@]2(C)[C@H]([C@H](OC(=O)c3ccccc3)[C@]3(O)C[C@H](OC(=O)[C@H](O)[C@@H](NC(=O)c4ccccc4)c4ccccc4)C(C)=C1C3(C)C)[C@]1(OC(C)=O)CO[C@@H]1C[C@@H]2O + CN1CCN(c2cc(C(=O)Nc3cc4cc(-c5cnn(C)c5)ccc4cn3)ccn2)CC1
IC50 [1]: < 31.6 nM | IC50 [2]: < 31.6 nM | IC50 [3]: < 31.6 nM | IC50 [4]: < 31.6 nM | IC50 [5]: < 31.6 nM | IC50 [6]: < 31.6 nM | viability, T/C [7]: 31.2% | viability, T/C [8]: 21.8% | viability, T/C [9]: 14.7% | viability, T/C [10]: 18% | viability, T/C [11]: 18.6% | viability, T/C [12]: 22.4% | viability, T/C [13]: 31.1% | viability, T/C [14]: 17.9% | viability, T/C [15]: 19.9% | viability, T/C [16]: 16.4% | viability, T/C [17]: 17.4% | viability, T/C [18]: 25.2% | viability, T/C [19]: 21.8% | viability, T/C [20]: 18% | viability, T/C [21]: 19.3% | viability, T/C [22]: 16.1% | viability, T/C [23]: 19.9% | viability, T/C [24]: 20.5% | viability, T/C [25]: 0.09% | viability, T/C [26]: 0.12% | viability, T/C [27]: 3.34% | viability, T/C [28]: 0.08% | viability, T/C [29]: 0.1% | viability, T/C [30]: 3.08% | viability, T/C [31]: 0.05% | viability, T/C [32]: 0.11% | viability, T/C [33]: 0.13% | viability, T/C [34]: 0.1% | viability, T/C [35]: 1.96% | viability, T/C [36]: 2.3% | viability, T/C [37]: 0.06% | viability, T/C [38]: 0.13% | viability, T/C [39]: 0.17% | viability, T/C [40]: 0.16% | viability, T/C [41]: 0.19% | viability, T/C [42]: 1.72%

IC50 [1]: > 10000 nM | IC50 [2]: 232 nM | IC50 [3]: < 31.6 nM | IC50 [4]: < 31.6 nM | IC50 [5]: < 31.6 nM | IC50 [6]: < 31.6 nM
Structure (SMILES): C#Cc1c(F)ccc2cc(O)cc(-c3ncc4c(N5CC6CCC(C5)N6)nc(OCC56CCCN5CC(F)C6)nc4c3F)c12 (stereo unspecified) + CNC(=O)c1ccc(Nc2nc(OC3CCCC3)c3c(-c4ccc5nc(C)oc5c4)c[nH]c3n2)c(OC)c1
viability, T/C [7]: 88.8% | viability, T/C [8]: 90.4% | viability, T/C [9]: 94.1% | viability, T/C [10]: 91.1% | viability, T/C [11]: 112% | viability, T/C [12]: 110% | viability, T/C [13]: 59.7% | viability, T/C [14]: 56.2% | viability, T/C [15]: 45.5% | viability, T/C [16]: 43% | viability, T/C [17]: 32.3% | viability, T/C [18]: 24.4% | viability, T/C [19]: 47.2% | viability, T/C [20]: 43.8% | viability, T/C [21]: 43.2% | viability, T/C [22]: 42.3% | viability, T/C [23]: 33% | viability, T/C [24]: 18.6% | viability, T/C [25]: 44.1% | viability, T/C [26]: 44.2% | viability, T/C [27]: 38.8% | viability, T/C [28]: 30.7% | viability, T/C [29]: 30.4% | viability, T/C [30]: 17.8% | viability, T/C [31]: 38.7% | viability, T/C [32]: 41.3% | viability, T/C [33]: 37.3% | viability, T/C [34]: 33.1% | viability, T/C [35]: 24.2% | viability, T/C [36]: 18.2% | viability, T/C [37]: 48.6% | viability, T/C [38]: 42.6% | viability, T/C [39]: 33.2% | viability, T/C [40]: 34.7% | viability, T/C [41]: 24.8% | viability, T/C [42]: 18.9%

IC50 [1]: > 10000 nM | IC50 [2]: 1220 nM | IC50 [3]: < 31.6 nM | IC50 [4]: < 31.6 nM | IC50 [5]: 42 nM | IC50 [6]: < 31.6 nM
Structure (SMILES): CC1COCCN1c1cc(C2(S(C)(=N)=O)CC2)nc(-c2ccnc3[nH]ccc23)n1 (stereo unspecified) + CNC(=O)c1ccc(Nc2nc(OC3CCCC3)c3c(-c4ccc5nc(C)oc5c4)c[nH]c3n2)c(OC)c1
viability, T/C [7]: 95.5% | viability, T/C [8]: 91.2% | viability, T/C [9]: 90.9% | viability, T/C [10]: 98.4% | viability, T/C [11]: 101% | viability, T/C [12]: 78.7% | viability, T/C [13]: 53.4% | viability, T/C [14]: 57.4% | viability, T/C [15]: 52.6% | viability, T/C [16]: 51.8% | viability, T/C [17]: 44.8% | viability, T/C [18]: 36.6% | viability, T/C [19]: 48.3% | viability, T/C [20]: 45.4% | viability, T/C [21]: 51.5% | viability, T/C [22]: 46.7% | viability, T/C [23]: 56.9% | viability, T/C [24]: 36.1% | viability, T/C [25]: 54.5% | viability, T/C [26]: 44% | viability, T/C [27]: 47% | viability, T/C [28]: 46.4% | viability, T/C [29]: 44.5% | viability, T/C [30]: 31.7% | viability, T/C [31]: 49.7% | viability, T/C [32]: 49.6% | viability, T/C [33]: 46.3% | viability, T/C [34]: 39.8% | viability, T/C [35]: 37.7% | viability, T/C [36]: 29.5% | viability, T/C [37]: 43.1% | viability, T/C [38]: 37.4% | viability, T/C [39]: 40.9% | viability, T/C [40]: 36.9% | viability, T/C [41]: 33.3% | viability, T/C [42]: 30.9%

IC50 (curve of compound): > 10000 nM
Structure (SMILES): C#Cc1c(F)ccc2cc(O)cc(-c3ncc4c(N5CC6CCC(C5)N6)nc(OCC56CCCN5CC(F)C6)nc4c3F)c12 (stereo unspecified)
viability, T/C (compound 0.0316 µM): 95.4% and 102% | viability, T/C (compound 0.1 µM): 96.2% and 91.8% | viability, T/C (compound 0.316 µM): 100% and 104% | viability, T/C (compound 1 µM): 119% and 114% | viability, T/C (compound 3.16 µM): 133% and 98.2% | viability, T/C (compound 10 µM): 83.3% and 65.1%

IC50 [1]: 328 nM | IC50 [2]: 340 nM | IC50 [3]: < 31.6 nM | IC50 [4]: 494 nM | IC50 [5]: 548 nM | IC50 [6]: 533 nM
Structure (SMILES): COc1cccc2c1C(=O)c1c(O)c3c(c(O)c1C2=O)CC(O)(C(=O)CO)CC3OC1CC(N)C(O)C(C)O1 (stereo unspecified) + CNC(=O)c1ccc(Nc2nc(OC3CCCC3)c3c(-c4ccc5nc(C)oc5c4)c[nH]c3n2)c(OC)c1
viability, T/C [7]: 111% | viability, T/C [8]: 72.6% | viability, T/C [9]: 54.1% | viability, T/C [10]: 34.5% | viability, T/C [11]: 1.22% | viability, T/C [12]: 0.82% | viability, T/C [13]: 53.8% | viability, T/C [14]: 57.7% | viability, T/C [15]: 42.7% | viability, T/C [16]: 35.9% | viability, T/C [17]: 0.57% | viability, T/C [18]: 0.99% | viability, T/C [19]: 55.7% | viability, T/C [20]: 47.1% | viability, T/C [21]: 46.8% | viability, T/C [22]: 42.1% | viability, T/C [23]: 0.32% | viability, T/C [24]: 0.17% | viability, T/C [25]: 49.7% | viability, T/C [26]: 61.3% | viability, T/C [27]: 75.6% | viability, T/C [28]: 30.7% | viability, T/C [29]: 0.2% | viability, T/C [30]: 0.17% | viability, T/C [31]: 61.8% | viability, T/C [32]: 66.6% | viability, T/C [33]: 81.3% | viability, T/C [34]: 28.3% | viability, T/C [35]: 0.16% | viability, T/C [36]: 2.18% | viability, T/C [37]: 58.2% | viability, T/C [38]: 56% | viability, T/C [39]: 79.7% | viability, T/C [40]: 32.4% | viability, T/C [41]: 0.24% | viability, T/C [42]: 1.24%

IC50 (curve of compound): < 31.6 nM
Structure (SMILES): CC(=O)O[C@H]1C(=O)[C@@]2(C)[C@H]([C@H](OC(=O)c3ccccc3)[C@]3(O)C[C@H](OC(=O)[C@H](O)[C@@H](NC(=O)c4ccccc4)c4ccccc4)C(C)=C1C3(C)C)[C@]1(OC(C)=O)CO[C@@H]1C[C@@H]2O
viability, T/C (compound 0.0316 µM): 32.9% and 37.9% | viability, T/C (compound 0.1 µM): 22.2% and 31.7% | viability, T/C (compound 0.316 µM): 18.2% and 24% | viability, T/C (compound 1 µM): 15.4% and 23.8% | viability, T/C (compound 3.16 µM): 19.5% and 23.1% | viability, T/C (compound 10 µM): 24% and 28.7%

IC50 (curve of compound): 1590 nM and 6690 nM
Structure (SMILES): CCCS(=O)(=O)Nc1ccc(F)c(C(=O)c2c[nH]c3ncc(-c4ccc(Cl)cc4)cc23)c1F
viability, T/C (compound 0.0316 µM): 22.5% and 95.7% | viability, T/C (compound 0.1 µM): 33.6% and 96.8% | viability, T/C (compound 0.316 µM): 104% and 98.2% | viability, T/C (compound 1 µM): 96% and 95.1% | viability, T/C (compound 3.16 µM): 29.5% and 104% | viability, T/C (compound 10 µM): 0.01% and 24.1%

IC50 (curve of compound): 672 nM and 654 nM
Structure (SMILES): O=c1[nH]cc(F)c(=O)[nH]1
viability, T/C (compound 0.0316 µM): 94% and 97.5% | viability, T/C (compound 0.1 µM): 95.6% and 111% | viability, T/C (compound 0.316 µM): 65.3% and 61.7% | viability, T/C (compound 1 µM): 44.4% and 46.8% | viability, T/C (compound 3.16 µM): 35.2% and 39.2% | viability, T/C (compound 10 µM): 39.2% and 43.4%
